Where two headings read alike, the source gives them in different places.
Key:
[1] = biological target: cdk2/cyclinE (Homo sapiens, UniProt P24941); assay: Cyclin-Dependent Kinase Assay cdk2/cyclinE; conditions: cdk2/E IC50
Protocol: Cyclin-Dependent Kinase Assays (cdk2/cyclinE, cdk2/cyclinA, cdc2/cyclinB)
All components except the ATP were added to the wells, and the plate was placed on a plate mixer for 2 minutes. The reaction was begun by addition of [^32P]ATP, and the plate was incubated at 25° C. for 15 minutes. The reaction was terminated by addition of 0.1 mL of 20% TCA. The plate was kept at 4° C. for at least 1 hour to allow the substrate to precipitate. The wells were then washed five times with 0.2 mL of 10% TCA and ^32p incorporation determined with a beta plate counter (Wallac Inc., Gaithersburg, Md.).

[2] = biological target: cdk4/D (Homo sapiens, UniProt P11802); assay: Cyclin-Dependent Kinase 4 (cdk4) Assay; format: biochemical
Protocol: A typical assay, for instance, measures inhibitory activity against the cyclin D dependent kinase 4 enzyme (cdk4/D). […] The cdk4 assay was carried out as follows.
Cyclin-Dependent Kinase 4 (cdk4) Assay
All components except the ATP were added to the wells, and the plate was placed on a plate mixer for 2 minutes. The reaction was started by adding [^32P]ATP and the plate was incubated at 25° C. for 15 minutes. The reaction was terminated by addition of 0.1 mL of 20% trichloroacetic acid (TCA). The plate was kept at 4° C. for at least 1 hour to allow the substrate to precipitate. The wells were then washed five times with 0.2 mL of 10% TCA and ^32P incorporation was determined with a beta plate counter (Wallac Inc., Gaithersburg, Md.).

[3] = biological target: cdk2/cyclinA (Homo sapiens, UniProt P24941); assay: Cyclin-Dependent Kinase Assay cdk2/cyclinA; conditions: cdk2/A IC50
[4] = biological target: Cdk5/p25 (Homo sapiens, UniProt Q00535); assay: Cyclin-Dependent Kinase 5 High Throughput Screening (cdk5-HTS) Assay; format: biochemical; conditions: high throughput screen
Protocol: Cyclin-Dependent Kinase 5 High Throughput Screening (cdk5-HTS) Assay
Enzyme assays for IC50 determinations were performed in 96-Pierce Reacti-Bind™ White Opaque Glutatione Coated Plates (Cat. No. 15240B).
The total volume was 0.100 mL containing a final concentration of 50 mM TRIS (tris[hydroxymethyl]aminomethane) at pH 7.4, 50 mM NaCl, 10 mM MgCl2, 5 mM dithiothreitol, 20 μM ATP containing 16 μCi/mL of Redivue[y33P]ATP (Amersham Pharmacia Biotech Cat. No. AH9968), 1.0 μg/mL Cdk5/p25, 20 μg/mL GST-RbCOOH, and appropriate dilutions of a compound of the present invention. The reaction was started by adding[^33P]ATP, and the plate was shaken for 30 seconds, then incubated at room temperature for 30 minutes. The reaction was terminated by addition of 0.05 mL of 120 mM EDTA. The plate was kept at room temperature for 45 minutes to allow substrate to bind to the walls of the plate. The wells were then washed three times with 0.2 mL of 1×PBS. Once thoroughly dry, 0.140 mL of MicroScint™2O (Packard Bioscience Cat. No. 87-9081) cocktail was added to all wells. The incorporation of ^33P was determined with a beta plate counter (Packard Topcount).

[5] = biological target: cdc2/cyclinB (Homo sapiens, UniProt P06493); assay: Cyclin-Dependent Kinase Assay cdc2/cyclinB
Sequence of cdc2/cyclinB (P06493 whole entry): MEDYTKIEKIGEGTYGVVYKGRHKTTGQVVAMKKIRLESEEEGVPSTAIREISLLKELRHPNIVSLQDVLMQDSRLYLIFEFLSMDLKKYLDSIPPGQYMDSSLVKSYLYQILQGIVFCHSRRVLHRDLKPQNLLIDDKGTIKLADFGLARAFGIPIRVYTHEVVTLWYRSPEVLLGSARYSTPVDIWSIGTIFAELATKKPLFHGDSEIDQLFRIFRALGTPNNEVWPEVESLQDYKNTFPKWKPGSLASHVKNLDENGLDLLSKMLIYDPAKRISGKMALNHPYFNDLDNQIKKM
Sequence of cdc2/cyclinB (P14635 whole entry, further chain): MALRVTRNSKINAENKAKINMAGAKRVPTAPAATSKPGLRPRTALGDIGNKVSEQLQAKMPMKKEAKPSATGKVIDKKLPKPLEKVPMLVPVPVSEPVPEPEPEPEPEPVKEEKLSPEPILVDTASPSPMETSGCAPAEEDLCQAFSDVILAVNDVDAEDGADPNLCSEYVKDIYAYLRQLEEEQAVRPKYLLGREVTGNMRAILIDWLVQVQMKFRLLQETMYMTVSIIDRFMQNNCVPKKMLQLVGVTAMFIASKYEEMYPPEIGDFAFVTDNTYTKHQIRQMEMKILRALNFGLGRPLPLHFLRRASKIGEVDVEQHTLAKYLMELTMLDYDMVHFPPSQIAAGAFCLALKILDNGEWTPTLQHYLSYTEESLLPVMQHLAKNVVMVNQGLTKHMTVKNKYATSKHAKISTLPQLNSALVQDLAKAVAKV

Sequence of cdk4/D (P11802 whole entry): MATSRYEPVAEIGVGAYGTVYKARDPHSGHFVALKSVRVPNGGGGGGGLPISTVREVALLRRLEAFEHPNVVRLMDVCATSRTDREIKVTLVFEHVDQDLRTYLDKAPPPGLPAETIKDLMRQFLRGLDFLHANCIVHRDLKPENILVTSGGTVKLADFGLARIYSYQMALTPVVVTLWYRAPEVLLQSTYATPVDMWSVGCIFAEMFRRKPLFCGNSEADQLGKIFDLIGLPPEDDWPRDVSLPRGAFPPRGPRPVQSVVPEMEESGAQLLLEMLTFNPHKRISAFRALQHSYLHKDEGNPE
Sequence of cdk4/D (P24385 whole entry, further chain): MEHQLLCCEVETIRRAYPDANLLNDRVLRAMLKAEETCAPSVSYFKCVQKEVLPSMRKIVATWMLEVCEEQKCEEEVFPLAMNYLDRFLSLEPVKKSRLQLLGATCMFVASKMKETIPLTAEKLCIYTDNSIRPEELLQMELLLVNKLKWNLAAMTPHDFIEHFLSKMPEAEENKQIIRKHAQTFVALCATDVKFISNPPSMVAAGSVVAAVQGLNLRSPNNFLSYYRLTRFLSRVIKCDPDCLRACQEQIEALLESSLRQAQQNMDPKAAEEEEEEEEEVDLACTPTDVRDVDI

Molecule | IC50 ([2]; read-out: cdk4/D IC50) [µM] | IC50 [4] [µM] | also measured
CC(=O)Nc1c(F)cc(Nc2ncc3ccc(=O)n(CC4CC4)c3n2)cc1Cl [Example 579, N-[2-Chloro4-(8-cyclopropylmethyl-7-oxo-7,8-dihydro-pyrido[2,3-d]pyrimidin-2-ylamino)-6-fluoro-phenyl]-acetamide] | 2.8 |  | IC50 [1]: 2.9 µM; IC50 [3]: 3.9 µM
CCn1c(=O)ccc2cnc(Nc3ccc(C)c(NS(C)(=O)=O)c3)nc21 [Example 307, N-[5-(8-Ethyl-7-oxo-7,8-dihydro-pyrido[2,3-d]pyrimidin-2-ylamino)-2-methyl-phenyl]-methanesulfonamide] | 2.8 |  | 
CCCn1c(=O)ccc2cnc(Nc3ccc(OC(F)(F)F)c(Br)c3)nc21 [Example 363, 2-(3-Bromo-4-trifluoromethoi-phenylamino)-8-propyl-8H-pyrido[2,3-d]pyrimidin-7-one] | 1.9 |  | 
COc1cc(Nc2ncc3ccc(=O)n(C)c3n2)cc(OC)c1OC [Example 619, 8-Methyl-2-(3,4,5-trimethoxy-phenylamino)-8H-pyrido[2,3-d]pyrimidin-7-one] |  | 1.7 | 
Cn1c(=O)ccc2cnc(Nc3ccc(C#N)c(C(F)(F)F)c3)nc21 [Example 620, 4-(8-Methyl-7-oxo-7,8-dihydro-pyrido[2,3-d]pyrimidin-2-ylamino)-2-trifluoromethyl-benzonitrile] |  | 0.42 | 
COc1ccc(Nc2ncc3ccc(=O)n(C)c3n2)cc1OC [Example 617, 2-(3,4-Dimethoxy-phenylamino)-8-methyl-8H-pyrido[2,3-d]pyrimidin-7-one] |  | 0.595 | IC50 [1]: 2.9 µM; IC50 [5]: 1.7 µM
N#Cc1ccc(Nc2ncc3ccc(=O)n(CC(F)(F)F)c3n2)cc1C#N [Example 603, 4-[7-Oxo-8-(2,2,2-trifluoro-ethyl)-7,8-dihydro-pyrido[2,3-d]pyrimidin-2-ylamino]-phthalonitrile] |  | 1.2 | 
CCn1c(=O)ccc2cnc(Nc3ccccc3OCc3ccccc3)nc21 [Example 56, 2-Benzyloxyphenylamino-8-ethyl-8H-pyrido[2,3-d]pyrimidin-7-one] |  |  | IC50 ([2]; Table 1, read-out: cdk4/D IC50): 25 µM
CCn1c(=O)ccc2cnc(Nc3ccc(NC(C)=O)c(C#N)c3)nc21 [Example 308, N-[2-Cyano-4-(8-ethyl-7-oxo-7,8-dihydro-pyrido[2,3-d]pyrimidin-2-ylamino)-phenyl]-acetamide] | 3.2 |  | 
CC(=O)Nc1cc(Nc2ncc3ccc(=O)n(CC(F)(F)F)c3n2)ccc1C#N [Example 604, N-{2-Cyano-5-[7-oxo-8-(2,2,2-trifluoro-ethyl)-7,8-dihydro-pyrido[2,3-d]pyrimidin-2-ylamino]-phenyl}-acetamide] | 3.2 | 2 | 
O=c1ccc2cnc(Nc3ccc(F)c(F)c3)nc2n1CC(F)(F)F [Example 607, 2-(3,4-Difluoro-phenylamino)-8-(2,2,2-trifluoro-ethyl)-8H-pyrido[2,3-d]pyrimidin-7-one] | 1.4 | 0.61 | 
CCCCn1c(=O)ccc2cnc(Nc3ccc(C)c(NS(C)(=O)=O)c3)nc21 [Example 405, N-[5-(8-Butyl-7-oxo-7,8-dihydro-pyrido[2,3-d]pyrimidin-2-ylamino)-2-methyl-phenyl]-methanesulfonamide] | 3.1 |  | 
CCCn1c(=O)ccc2cnc(Nc3ccc(C#N)c(C#N)c3)nc21 [Example 339, 4-(7-Oxo-8-propyl-7,8-dihydro-pyrido[2,3-d]pyrimidin-2-ylamino)-phthalonitrile] |  | 0.83 | IC50 [1]: 1.8 µM
O=c1ccc2cnc(Nc3ccc4c(c3)CCN4)nc2n1CC1CC1 [Example 581, 8-Cyclopropylmethyl-2-(2,3-dihydro-1H-indol-5-ylamino)-8H-pyrido[2,3-d]pyrimidin-7-one] | 0.42 |  | IC50 [5]: 1.6 µM
CCC(CC)n1c(=O)ccc2cnc(Nc3ccc(C(F)(F)F)c([N+](=O)[O-])c3)nc21 [Example 489, 8-(1-Ethyl-propyl)-2-(3-nitro-4-trifluoromethyl-phenylamino)-8H-pyrido[2,3-d]pyrimidin-7-one] |  | 3.5 | 
O=c1ccc2cnc(Nc3cc(F)cc(F)c3)nc2n1CC(F)(F)F [Example 609, 2-(3,5-Difluoro-phenylamino)-8-(2,2,2-trifluoro-ethyl)-8H-pyrido[2,3-d]pyrimidin-7-one] |  | 3.2 | 

Molecule | IC50 ([2]; read-out: cdk4/D IC50) [µM] | IC50 [4] [µM] | also measured
CC(C)n1c(=O)ccc2cnc(Nc3ccc4c(c3)CCN4)nc21 [Example 437, 2-(2,3-Dihydro-1H-indol-5-ylamino)-8-isopropyl-8H-pyrido[2,3-d]pyrimidin-7-one] | 3.2 |  | 
8-Butyl-2-(2-fluoro-4-nitro-phenylamino)-8H-pyrido[2,3-d]pyrimidin-7-one [Example 367] | 2.3 |  | 
CCC(C)n1c(=O)ccc2cnc(Nc3ccc(C)c(Br)c3)nc21 (stereo not drawn) [Example 478, 2-(3-Bromo-4-methyl-phenylamino)-8-sec-butyl-8H-pyrido[2,3-d]pyrimidin-7-one] | 1.3 |  | 
COc1ccc(Nc2ncc3ccc(=O)n(CC(F)(F)F)c3n2)cc1F [Example 602, 2-(3-Fluoro-4-methoxy-phenylamino)-8-(2,2,2-trifluoro-ethyl)-8H-pyrido[2,3-d]pyrimidin-7-one] | 1.3 | 0.18 | IC50 [5]: 1.8 µM
O=c1ccc2cnc(Nc3cccc(C(F)(F)F)c3)nc2n1CC(F)(F)F [Example 611, 8-(2,2,2-Trifluoro-ethyl)-2-(3-trifluoromethyl-phenylamino)-8H-pyrido[2,3-d]pyrimidin-7-one] |  | 3.3 | 
CCn1c(=O)ccc2cnc(Nc3cc(C(F)(F)F)ccc3F)nc21 [Example 302, 8-Ethyl-2-(2-fluoro-5-trifluoromethyl-phenylamino)-8H-pyrido[2,3-d]pyrimidin-7-one] |  | 0.65 | IC50 [1]: 2.3 µM
CCn1c(=O)ccc2cnc(Nc3ccc(OC(F)(F)F)c(Br)c3)nc21 [Example 306, 2-(3-Bromo-4-trifluoromethoxy-phenylamino)-8-ethyl-8H-pyrido[2,3-d]pyrimidin-7-one] | 3.6 |  | 
COc1cc(Nc2ncc3ccc(=O)n(CC(F)(F)F)c3n2)cc(C(F)(F)F)c1 [Example 606, 2-(3-Methoxy-5-trifluoromethyl-phenylamino)-8-(2,2,2-trifluoro-ethyl)-8H-pyrido[2,3-d]pyrimidin-7-one] | 3.8 | 1.8 | IC50 [5]: 3.5 µM
O=c1ccc2cnc(Nc3ccc4c(c3)CCN4)nc2n1C1CCCC1 [Example 553, 8-Cyclopentyl-2-(2,3-dihydro-1H-indol-5-ylamino)-8H-pyrido[2,3-d]pyrimidin-7-one] | 0.099 |  | IC50 [5]: 2.5 µM
CC(=O)Nc1ccc(Nc2ncc3ccc(=O)n(C(C)C)c3n2)cc1C#N [Example 445, N-[2-Cyano-4-(8-isopropyl-7-oxo-7,8-dihydro-pyrido[2,3-d]pyrimidin-2-ylamino)-phenyl]-acetamide] | 2.7 |  | 
CCNc1nc(Nc2ccccc2)ncc1C=CC(=O)OCC [Example 17, Ethyl 3-(4-Ethylamino-2-phenylamino-pyrimidin-5-yl)acrylate] |  |  | IC50 ([2]; Table 2, Formula II compounds, read-out: cdk4 IC50): 2 µM
CCC(C)n1c(=O)ccc2cnc(Nc3ccc(C)c(NS(C)(=O)=O)c3)nc21 (stereo not drawn) [Example 480, N-[5-(8-sec-Butyl-7-oxo-7,8-dihydro-pyrido[2,3-d]pyrimidin-2-ylamino)-2-methyl-phenyl]-methanesulfonamide] | 2.9 |  | 
CCC(C)n1c(=O)ccc2cnc(Nc3ccc(Br)c(C)c3)nc21 (stereo not drawn) [Example 479, 2-(4-Bromo-3-methyl-phenylamino)-8-sec-butyl-8H-pyrido[2,3-d]pyrimidin-7-one] | 1.7 |  | 
CCCn1c(=O)ccc2cnc(Nc3ccc4c(c3)NCC4)nc21 [Example 352, 2-(2,3-Dihydro-1H-indol-6-ylamino)-8-propyl-8H-pyrido[2,3-d]pyrimidin-7-one] |  | 2.9 | 
Cc1cc(Nc2ncc3ccc(=O)n(C(C)C)c3n2)ccc1O [Example 435, 2-(4-Hydroxy-3-methyl-phenylamino)-8-isopropyl-8H-pyrido[2,3-d]pyrimidin-7-one] | 2.6 | 1.3 | 
Cn1c(=O)ccc2cnc(Nc3ccc(O)c(Cl)c3)nc21 [Example 616, 2-(3-Chloro-4-hydroxy-phenylamino)-8-methyl-8H-pyrido[2,3-d]pyrimidin-7-one] |  | 2.2 | IC50 [1]: 3.8 µM

— patent US20040224958A1, “Pyridopyrimidinone derivatives for treatment of neurodegenerative disease” (priority 2000, published 2004)
